Measured values: ChEMBL document CHEMBL1909046, “DrugMatrix in vitro pharmacology data”

Tests used:
[1] = DRUGMATRIX: ATPase, Na+/K+ enzyme inhibition (substrate: ATP); type: tissue-based, Sus scrofa, Heart; conditions: Not Active = under 50% inhibition at 10 µM
[2] = target: T1, Thromboxane-A synthase (Homo sapiens, UniProt P24557); assay: biochemical; type: tissue-based, Platelet;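 also: enzyme inhibition assay with PGH2 supplied as substrate; in other assays of this panel Not Active means under 50% inhibition at 10 µM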
T1 sequence (P24557 whole entry): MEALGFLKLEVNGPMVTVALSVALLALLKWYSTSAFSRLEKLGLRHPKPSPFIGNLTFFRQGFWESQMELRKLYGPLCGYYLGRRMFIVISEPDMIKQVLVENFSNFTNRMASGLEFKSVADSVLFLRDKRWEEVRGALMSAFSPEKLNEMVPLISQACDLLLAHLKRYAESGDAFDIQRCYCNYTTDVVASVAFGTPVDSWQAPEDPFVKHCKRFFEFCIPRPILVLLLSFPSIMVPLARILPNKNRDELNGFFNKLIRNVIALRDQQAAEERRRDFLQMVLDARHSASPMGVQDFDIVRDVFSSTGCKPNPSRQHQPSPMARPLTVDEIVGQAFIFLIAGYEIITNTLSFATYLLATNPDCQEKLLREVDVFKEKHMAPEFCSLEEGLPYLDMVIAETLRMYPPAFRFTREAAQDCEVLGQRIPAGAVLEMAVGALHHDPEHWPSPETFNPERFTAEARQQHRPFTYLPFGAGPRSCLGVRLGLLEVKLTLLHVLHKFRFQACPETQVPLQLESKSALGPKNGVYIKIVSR

[3] = target: T2, C-C chemokine receptor type 4 (Homo sapiens, UniProt P51679); type: cell membranes, Membrane; conditions: chem-1; also: in other assays of this panel Not Active means under 50% inhibition at 10 µM
T2 sequence (P51679 whole entry): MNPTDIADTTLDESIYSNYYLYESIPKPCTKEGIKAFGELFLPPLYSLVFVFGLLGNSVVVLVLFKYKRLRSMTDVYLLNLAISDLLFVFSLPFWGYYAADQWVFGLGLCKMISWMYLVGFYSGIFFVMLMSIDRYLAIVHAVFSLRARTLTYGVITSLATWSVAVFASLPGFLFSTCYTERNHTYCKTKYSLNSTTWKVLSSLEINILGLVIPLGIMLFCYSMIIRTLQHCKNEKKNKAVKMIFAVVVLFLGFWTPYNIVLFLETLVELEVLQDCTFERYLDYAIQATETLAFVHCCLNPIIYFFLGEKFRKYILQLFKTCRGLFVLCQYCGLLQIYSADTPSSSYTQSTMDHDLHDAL

[4] = DRUGMATRIX: Glutamate, AMPA radioligand binding (ligand: [3H] AMPA); type: cell membranes, Rattus norvegicus, Wistar, Cerebral cortex, Membrane; conditions: Not Active = under 50% inhibition at 10 µM
[5] = DRUGMATRIX: Leukotriene, BLT (LTB4) radioligand binding (ligand: [3H]LTB4); type: cell membranes, Membrane; conditions: u-937; Not Active = under 50% inhibition at 10 µM
[6] = target: Melanocortin receptor 5 (Homo sapiens, UniProt P33032); type: cell membranes, HEK293, Membrane; conditions: hek293; also: in other assays of this panel Not Active means under 50% inhibition at 10 µM
Chain of Melanocortin receptor 5 (P33032 whole entry): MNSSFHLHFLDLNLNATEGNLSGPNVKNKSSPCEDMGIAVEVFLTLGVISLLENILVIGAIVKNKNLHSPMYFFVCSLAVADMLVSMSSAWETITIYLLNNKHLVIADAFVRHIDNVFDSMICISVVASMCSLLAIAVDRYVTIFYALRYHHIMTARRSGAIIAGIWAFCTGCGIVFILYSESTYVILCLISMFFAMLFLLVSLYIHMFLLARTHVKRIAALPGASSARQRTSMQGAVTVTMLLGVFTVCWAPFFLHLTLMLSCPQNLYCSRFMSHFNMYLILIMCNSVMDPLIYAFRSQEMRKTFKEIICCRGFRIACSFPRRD

[7] = target: Matrix metalloproteinase-9 (Homo sapiens, UniProt P14780); type: cell-based;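 also: inhibition of isolated MMP-9 enzyme activity toward a synthetic peptide substrate, from the DrugMatrix protease screening panel; in other assays of this panel Not Active means under 50% inhibition at 10 µM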
Chain of Matrix metalloproteinase-9 (P14780 whole entry): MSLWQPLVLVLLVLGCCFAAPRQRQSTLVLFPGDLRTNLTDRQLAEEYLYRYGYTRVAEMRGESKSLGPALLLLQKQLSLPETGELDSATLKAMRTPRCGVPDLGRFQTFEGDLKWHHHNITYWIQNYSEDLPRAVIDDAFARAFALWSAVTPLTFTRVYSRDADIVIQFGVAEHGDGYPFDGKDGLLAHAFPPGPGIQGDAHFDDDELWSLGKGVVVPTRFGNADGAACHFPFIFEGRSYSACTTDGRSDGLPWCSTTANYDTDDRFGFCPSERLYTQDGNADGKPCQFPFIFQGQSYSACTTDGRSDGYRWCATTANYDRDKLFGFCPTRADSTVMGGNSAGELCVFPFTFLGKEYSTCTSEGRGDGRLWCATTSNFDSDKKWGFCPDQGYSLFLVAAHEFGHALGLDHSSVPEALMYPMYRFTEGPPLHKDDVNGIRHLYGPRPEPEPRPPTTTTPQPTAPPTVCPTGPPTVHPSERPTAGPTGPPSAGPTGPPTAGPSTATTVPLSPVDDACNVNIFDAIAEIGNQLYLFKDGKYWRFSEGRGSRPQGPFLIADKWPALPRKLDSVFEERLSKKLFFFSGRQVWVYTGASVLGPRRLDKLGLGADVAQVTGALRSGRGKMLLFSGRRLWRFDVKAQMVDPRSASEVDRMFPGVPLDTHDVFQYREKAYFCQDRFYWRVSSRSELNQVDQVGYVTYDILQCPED

SMILES | IC50 [1] | Ki [1] | IC50 ([2]; platelet) | IC50 [3] | IC50 [4] | Ki [4] | IC50 [5] | Ki [5] | IC50 [6] | IC50 [7] | IC50 ([2]; read-out: IC50) [µM]
CC(=O)OCC(=O)[C@@]1(O)CC[C@H]2[C@@H]3CCC4=CC(=O)CC[C@]4(C)[C@@]3(F)[C@@H](O)C[C@@]21C [FLUDROCORTISONE ACETATE] | Not Active | Not Active | Not Active | Not Active | Not Active | Not Active | Not Active | Not Active | Not Active | Not Active | 
CCOC(=O)c1ncn2c1CN(C)C(=O)c1cc(F)ccc1-2 [FLUMAZENIL] | Not Active | Not Active | Not Active | Not Active | Not Active | Not Active | Not Active | Not Active | Not Active | Not Active | 
CC(=O)OCC(=O)[C@@]12OC(C)(C)O[C@@H]1C[C@H]1[C@@H]3C[C@H](F)C4=CC(=O)C=C[C@]4(C)[C@@]3(F)[C@@H](O)C[C@@]12C [FLUOCINONIDE] | Not Active | Not Active | Not Active | Not Active | Not Active | Not Active | Not Active | Not Active | Not Active | Not Active | 
O=C(O)P(=O)(O)O [FOSCARNET] | Not Active | Not Active | Not Active | Not Active | Not Active | Not Active | Not Active | Not Active | Not Active | Not Active | 
Cc1ccc(C)c(OCCCC(C)(C)C(=O)O)c1 [GEMFIBROZIL] | Not Active | Not Active | Not Active | Not Active | Not Active | Not Active | Not Active | Not Active | Not Active | Not Active | 
O=c1c(-c2ccc(O)cc2)coc2cc(O)cc(O)c12 [GENISTEIN] | Not Active | Not Active |  | Not Active | Not Active | Not Active | Not Active | Not Active | Not Active | Not Active | 7.72
CCC1=C(C)CN(C(=O)NCCc2ccc(S(=O)(=O)NC(=O)N[C@H]3CC[C@H](C)CC3)cc2)C1=O [GLIMEPIRIDE] | Not Active | Not Active | Not Active | Not Active | Not Active | Not Active | Not Active | Not Active | Not Active | Not Active | 
Nc1cc(-c2ccncc2)c[nH]c1=O [INAMRINONE] | Not Active | Not Active | Not Active | Not Active | Not Active | Not Active | Not Active | Not Active | Not Active | Not Active | 
CCCCC1=NC2(CCCC2)C(=O)N1Cc1ccc(-c2ccccc2-c2nnn[nH]2)cc1 [IRBESARTAN] | Not Active | Not Active | Not Active | Not Active | Not Active | Not Active | Not Active | Not Active | Not Active | Not Active | 
CN1CCC(=C2c3ccccc3CC(=O)c3sccc32)CC1 [KETOTIFEN] | Not Active | Not Active | Not Active | Not Active | Not Active | Not Active | Not Active | Not Active | Not Active | Not Active | 
N[C@@H](Cn1ccc(=O)c(O)c1)C(=O)O [L-MIMOSINE] | Not Active | Not Active | Not Active | Not Active | Not Active | Not Active | Not Active | Not Active | Not Active | Not Active | 
C[N+](C)(C)C[C@H](O)CC(=O)[O-] [LEVOCARNITINE] | Not Active | Not Active | Not Active | Not Active | Not Active | Not Active | Not Active | Not Active | Not Active | Not Active | 
